Measured values from PubChem BioAssay (NCI).
Values joined by “and” are separate entries in the source; they are usually repeats but may differ in a detail not shown here. Equal values may be shown once.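 48-hour exposure; five concentrations; linearly interpolated endpoints. GI50 is the concentration that inhibits growth by half. TGI denotes the concentration required for complete inhibition of growth.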

Tests used:
Assay in all cases: NCI tumour cell line growth inhibition, 48 h
NCI-H522 lung = tested on: NCI-H522 lung
SF-539 CNS = tested on: SF-539 CNS
CCRF-CEM leukemia = tested on: CCRF-CEM leukemia
HOP-62 NSCLC = tested on: HOP-62 NSCLC
SNB-75 CNS = tested on: SNB-75 CNS
CAKI-1 renal = tested on: CAKI-1 renal
NCI-H226 lung = tested on: NCI-H226 lung
TK-10 renal = tested on: TK-10 renal
HCT-116 colon = tested on: HCT-116 colon
COLO 205 colon = tested on: COLO 205 colon

SMILES	TGI (NCI-H522 lung) [µM]	TGI (SF-539 CNS)	TGI (CCRF-CEM leukemia) [µM]	TGI (HOP-62 NSCLC)	TGI (SNB-75 CNS) [µM]	TGI (CAKI-1 renal) [µM]	TGI (NCI-H226 lung)	TGI (TK-10 renal) [µM]	TGI (HCT-116 colon) [µM]	TGI (COLO 205 colon)	GI50 (NCI-H522 lung) [nM]	GI50 (SF-539 CNS)	GI50 (CCRF-CEM leukemia) [nM]	GI50 (HOP-62 NSCLC)	GI50 (SNB-75 CNS) [nM]	GI50 (NCI-H226 lung)	GI50 (TK-10 renal) [µM]	GI50 (COLO 205 colon)	GI50 (HCT-116 colon)	GI50 (CAKI-1 renal)
CN(C)CCC[N+]1=Nc2cccc3cccc(c23)N1	91.2	> 100 µM	80.8	> 100 µM	> 100	> 100	> 100 µM	> 100	> 100											
CCOC(=O)C1C(=O)CC(=O)C2CCCCC21 (stereo not drawn)	> 100	> 100 µM	> 100	> 100 µM	> 100	> 100		> 100	> 100	> 100 µM										
CC1(C)C(=O)/C=C\C(=O)C(C)(C)C(=O)/C=C\C(=O)C(C)(C)C2=CC=C(O2)C(C)(C)C(=O)/C=C\C1=O	2.22	17.7 µM		44.7 µM	20.2	7.91	18.1 µM	13.4	5	6.45 µM										
CCc1c(C)c2cc(-n3c(-c4ccc(OC)cc4)csc3=N)c(O)c(C)c2oc1=O	2.46	7.25 µM	> 100	8.53 µM	> 100		9.73 µM	8.35	2.99	4.88 µM	646	2140 nM	1540	1.67 µM	1670	2.13 µM	4.36	1940 nM	1230 nM	
CC12O[C@H](C[C@@H](OC(=O)CCC(=O)O)[C@H]1O)n1c3ccccc3c3c4c(c5c6ccccc6n2c5c31)C(=O)NC4=O	6.92	3.97 µM	13.4	10.7 µM	7.41		9.71 µM	10.9	9.8	5.26 µM	602	1220 nM	1570	0.834 µM	1070	0.738 µM	0.411	902 nM	1500 nM	
COc1ccc2c(c1)nnc1c3cccnc3[nH]c21	3	1.62 µM and 1.87 µM	> 100	16.1 µM and > 100 µM			11.1 µM and 65.3 µM	22.6		4.87 µM and 2.31 µM	1090	642 nM and 428 nM	37.2	5.47 µM and 26 µM		2.62 µM and 7.87 µM	4.52	1130 nM and 735 nM	209 nM and 146 nM	0.108 µM and 0.594 µM
COc1ccc(-c2[nH]ncc2Nc2cc(OC)c(OC)c(OC)c2)cc1	49.3		19.4	> 95.3 µM	> 100	> 100	> 100 µM	96.9	> 43.2	6.32 µM	1980		1500	3.32 µM	1520	29.1 µM	> 32	1610 nM	1040 nM	5.64 µM
S=C(SSC(=S)N1CCCCC1)N1CCCCC1	30.1	32.6 µM	58.3	> 100 µM	57.6	> 100	> 100 µM	82.2		24.1 µM	12200	14200 nM	8180	28.4 µM	16700	34.6 µM	22.9	11800 nM		18 µM
N#CC1=C(N)OC2=C(CCOc3c2ccc2ccccc32)C1c1ccc(Br)cc1 (stereo not drawn)	> 100	> 100 µM	54.2	> 100 µM		80.6		61.6	47.7	> 100 µM	> 100000	> 100000 nM	16800	56.6 µM			21.6	29000 nM	15100 nM	15.1 µM
CCCCCCCCN=C(NCCCCCCCC)SCc1cccc2ccccc12	2.87		9.69	3.13 µM	3.18	2.97	2.95 µM	3.2	2.01	2.95 µM	1380		2350	1.71 µM	1660	1.52 µM	1.74	1480 nM	730 nM	1.56 µM
CC1=C[C@@H]2c3c(c(O)c(O)c4oc5cc(O)cc(O)c5c(=O)c34)[C@@H](c3cc(O)c(O)c4oc5cc(O)cc(O)c5c(=O)c34)[C@@H]2C(C)(C)C1	12.1	17.2 µM		14.5 µM	20.5	14	28.4 µM	19.2	9.85	11.2 µM	2900	4700 nM		3 µM	6340	3.82 µM	5.85	2860 nM	2700 nM	3.93 µM
CN1CCN(c2nc(N)c(Br)c(Cl)n2)CC1	> 100		> 100	> 100 µM	> 100	> 100		> 100		> 100 µM										
O=C(CCc1ccccc1)CC1OC(=O)C(Cl)=C1Cl (stereo not drawn)	28.5	76.7 µM	> 100	55.6 µM	> 100	59.1		57.7	28	30.9 µM										
Cc1[nH]c2cc([N+](=O)[O-])ccc2c1[N+](=O)[O-]	38.4	57.1 µM	64.6	32.8 µM	57.5	47.1	71.8 µM	75.8		33 µM										
O=C(NCCNCCO)c1ccc(Nc2nc3ccccc3c3occc23)cc1	35.4	29.4 µM	14.3	24.9 µM	27.2	33.1		6.67	23.3	> 100 µM	14300	12600 nM	3050	12.2 µM	9260		2.11	29100 nM	10100 nM	17.3 µM
CCN(CC)c1ccc(C2N3CCCCC3[C@@H]3c4[nH]c5ccccc5c4CCN23)cc1 (stereo partly drawn)		41.6 µM	63.9	> 100 µM	29.1	> 100		86.1	33.9	93.2 µM										
